# Article PMC8286831, “Identifying SARS-CoV-2 antiviral compounds by screening for small molecule inhibitors of nsp13 helicase” (Biochemical Journal, 2021)
# “And” between values parts separate entries of the source, which are not always exact repeats. Identical values can stand only once. “Also recorded” adds a separate entry of the source. Like-named read-outs stand apart in the source and are kept apart here.
# Experiments:
# [1] = target: T1, SARS-CoV-2 nsp13 helicase (Severe acute respiratory syndrome coronavirus 2, UniProt P0DTD1); type: biochemical
# [2] = target: T1, SARS-CoV-2 nsp13 helicase; assay: biochemical; type: biochemical
# [3] = target: T2, SARS-CoV-2 RdRp holoenzyme (Severe acute respiratory syndrome coronavirus 2, UniProt P0DTD1); assay: FRET-based RdRp strand displacement assay; type: biochemical
# T2 construct: (Sf nsp12-3F/7L8 preincubated with Sf 7H8 at a 1:3 ratio); 3F (3xFlag) (C); made in house; host or cells: 'Sf', read as Spodoptera frugiperda insect cells (my inference from the prefix); details are in Bertolin et al
# SARS-CoV-2 = assay: microbe, parasite or virus in culture; type: cell-based; settings: for EC50: read-out: EC50 viral inhibition
# [4] = RNA (nsp13 substrate), 0.3 mM ATP, 0.02% Tween-20 in RdRp assay buffer, read-out: IC50 nsp13
# [5] = read-out: IC50 + 0.02% Tween-20
# [6] = RNA (RdRp substrate), 0.3 mM each NTP, 0.02% Tween-20 in RdRp assay buffer, read-out: IC50 RdRp
# [7] = read-out: IC50 + 0.01% Triton X-100
# [8] = Severe acute respiratory syndrome coronavirus 2, Vero C1008, 22 h
# [9] = IC50 0.02% Tween-20 + (presence)
# [10] = IC50 0.02% Tween-20 − (absence)
Structure (SMILES),inhibition of duplex unwinding in gel-based assay [1],"IC50 [2, 4]","IC50 [2, 5]",IC50 ([2]; read-out: IC50 No detergent),IC50 ([2]; IC50 No detergent),EC50 (SARS-CoV-2),nsp13 inhibition and detergent sensitivity [2],also measured
Cc1cc(-c2ccc(N=Nc3c(S(=O)(=O)[O-])cc4cc(S(=O)(=O)[O-])cc(N)c4c3O)c(C)c2)ccc1N=Nc1c(S(=O)(=O)[O-])cc2cc(S(=O)(=O)[O-])cc(N)c2c1O.[Na+].[Na+].[Na+].[Na+] [Diphenyl Blue],clearly reduced the generation of single-stranded Cy3 strand,4 µM,4.7 µM,5.6 µM,–,–,–,"IC50 [3, 6]: 5 µM"
Cc1cc(-c2ccc(/N=N/c3ccc4c(S(=O)(=O)O)cc(S(=O)(=O)O)c(N)c4c3O)c(C)c2)ccc1/N=N/c1ccc2c(S(=O)(=O)O)cc(S(=O)(=O)O)c(N)c2c1O [Evans Blue],clearly reduced the generation of single-stranded Cy3 strand,1.5 µM,–,–,1.2 µM,–,–,–
NC(=S)N/N=C/c1coc2ccccc2c1=O.[Cl][Cu][Cl] [FPA 124],clearly reduced the generation of single-stranded Cy3 strand,–,8.4 µM,8.5 µM,–,14 µM and ~14 µM,no detergent sensitivity; also recorded: largely insensitive to detergent addition,"IC50 [2, 7]: 8.9 µM; IC50 ([2]; read-out: IC50 -Triton X-100): 9.1 µM; IC50 ([2]; read-out: IC50 against nsp13 in vitro): ~9 µM"
O=c1c(O)c(-c2cc(O)c(O)c(O)c2)oc2cc(O)cc(O)c12 [Myricetin],inhibited nsp13 with less efficiency,–,–,–,–,31.6 µM,clear inhibition only in the absence of detergent,EC50 (SARS-CoV-2; [8]): 32 µM
O=C(Nc1cccc(C(=O)Nc2ccc(S(=O)(=O)[O-])c3cc(S(=O)(=O)[O-])cc(S(=O)(=O)[O-])c23)c1)Nc1cccc(C(=O)Nc2ccc(S(=O)(=O)[O-])c3cc(S(=O)(=O)[O-])cc(S(=O)(=O)[O-])c23)c1.[Na+].[Na+].[Na+].[Na+].[Na+].[Na+] [NF 023],clearly reduced the generation of single-stranded Cy3 strand,0.7 µM,0.92 µM,–,–,–,–,"nsp13 inhibition and detergent sensitivity ([2]; presence or absence of non-ionic detergent): largely insensitive to detergent addition; IC50 ([2]; read-out: IC50 0.02% Tween-20 + (presence)): 0.64 µM; IC50 ([2]; read-out: IC50 0.02% Tween-20 − (absence)): 0.67 µM; IC50 [2, 7]: 0.51 µM; IC50 ([2]; read-out: IC50 -Triton X-100): 0.33 µM"
Cc1nc(N=Nc2cc(S(=O)(=O)[O-])c3cc([N+](=O)[O-])cc(S(=O)(=O)[O-])c3c2)c(COP(=O)([O-])[O-])c(C=O)c1O.[Na+].[Na+].[Na+].[Na+] [PPNDS],clearly reduced the generation of single-stranded Cy3 strand,2.2 µM,1.6 µM,2 µM,–,–,–,"IC50 [3, 6]: 0.7 µM"
CCC(CC)COC(=O)[C@H](C)N[P@](=O)(OC[C@H]1O[C@@](C#N)(c2ccc3c(N)ncnn23)[C@H](O)[C@@H]1O)Oc1ccccc1 [Remdesivir],–,–,–,–,–,–,–,"inhibition at 1 µM (SARS-CoV-2; Severe acute respiratory syndrome coronavirus 2, Vero C1008, 1 µM remdesivir alone, Vero E6 cells, read-out: inhibition of viral infection): < 20%"
C=CCn1c(CSc2ccccc2[N+](=O)[O-])n[nH]c1=S [SSYA10-001],inhibited nsp13 with less efficiency,–,28 µM,7.5 µM,–,81 µM and 80.5 µM,moderate sensitivity to detergent,"IC50 [2, 7]: 21 µM; IC50 ([2]; read-out: IC50 -Triton X-100): 14 µM"
Cc1ccc(C(=O)Nc2ccc(S(=O)(=O)O)c3cc(S(=O)(=O)O)cc(S(=O)(=O)O)c23)cc1NC(=O)c1cccc(NC(=O)Nc2cccc(C(=O)Nc3cc(C(=O)Nc4ccc(S(=O)(=O)O)c5cc(S(=O)(=O)O)cc(S(=O)(=O)O)c45)ccc3C)c2)c1 [Suramin],clearly reduced the generation of single-stranded Cy3 strand,–,–,–,0.94 µM,~10 µM,largely insensitive to detergent addition,"EC50 (SARS-CoV-2; [8]): 9.9 µM; IC50 [2, 9]: 1.6 µM; IC50 [2, 10]: 0.74 µM; IC50 ([2]; IC50 + 0.01% Triton X-100): 1.6 µM; IC50 ([2]; IC50 -Triton X-100): 1.3 µM; IC50 ([2]; IC50 against nsp13 in vitro): ~1 µM; IC50 ([2]; IC50 nsp13): 1.5 µM; IC50 [3, 6]: 0.5 µM"
"CC1(C)CCC(CN2CCN(c3ccc(C(=O)NS(=O)(=O)c4ccc(NCC5CCOCC5)c([N+](=O)[O-])c4)c(Oc4cnc5[nH]ccc5c4)c3)CC2)=C(c2ccc(Cl)cc2)C1 [Venetoclax/ABT-199, Venetoclax]",–,–,–,–,25 µM,–,–,"IC50 ([2]; IC50 + 0.02% Tween-20): > 250 µM; IC50 nsp13 ([2]; RNA (nsp13 substrate), 0.3 mM ATP, 0.02% Tween-20 in RdRp assay buffer): No inhibition; IC50 RdRp ([3]; RNA (RdRp substrate), 0.3 mM each NTP, 0.02% Tween-20 in RdRp assay buffer): No inhibition"
COc1cc(C(=O)NS(=O)(=O)c2ccccc2C)ccc1Cc1cn(C)c2ccc(NC(=O)OC3CCCC3)cc12 [Zafirlukast],–,48 µM,–,–,3.6 µM and 6.6 µM,–,–,"IC50 [2, 9]: 50 µM; IC50 [2, 10]: 1.5 µM; IC50 ([2]; IC50 + 0.01% Triton X-100): 22 µM; IC50 ([2]; IC50 + 0.02% Tween-20): 53 µM and 55 µM; IC50 ([2]; IC50 -Triton X-100): 7.4 µM; IC50 [3]: 46 µM"
